From PubChem BioAssay AID1963871 (Molecular Pharmacology Branch, DTP, NCI, 2024)

Test system: KRAS-mutant PDC multicell tumor spheroid viability
Assay: Anticancer human tumor 521955-158-R2-J5-PDC patient-derived pancreatic carcinoma cell line growth inhibition [KRAS2]
Details: for IC50: curve of first compound; for viability, T/C: stronger effect = lower value
In short: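 KRAS-mutant tumor cells were grown as spheroids with HUVEC endothelial cells and human MSCs as stroma. Targeted agents were tested alone and with KRAS pathway inhibitors. Doses started at or near clinical Cmax, or 10 microM, descending half-log.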

[1] = second compound 0.1 µM, first compound 0.000316 µM
[2] = second compound 0.1 µM, first compound 0.001 µM
[3] = second compound 0.1 µM, first compound 0.00316 µM
[4] = second compound 0.1 µM, first compound 0.01 µM
[5] = second compound 0.1 µM, first compound 0.0316 µM
[6] = second compound 0.316 µM, first compound 0.000316 µM
[7] = second compound 0.316 µM, first compound 0.001 µM
[8] = second compound 0.316 µM, first compound 0.00316 µM
[9] = second compound 0.316 µM, first compound 0.01 µM
[10] = second compound 0.316 µM, first compound 0.0316 µM
[11] = second compound 1 µM, first compound 0.000316 µM
[12] = second compound 1 µM, first compound 0.001 µM
[13] = second compound 1 µM, first compound 0.00316 µM
[14] = second compound 1 µM, first compound 0.01 µM
[15] = second compound 1 µM, first compound 0.0316 µM
[16] = second compound 3.16 µM, first compound 0.000316 µM
[17] = second compound 3.16 µM, first compound 0.001 µM
[18] = second compound 3.16 µM, first compound 0.00316 µM
[19] = second compound 3.16 µM, first compound 0.01 µM
[20] = second compound 3.16 µM, first compound 0.0316 µM
[21] = second compound 10 µM, first compound 0.000316 µM
[22] = second compound 10 µM, first compound 0.001 µM
[23] = second compound 10 µM, first compound 0.00316 µM
[24] = second compound 10 µM, first compound 0.01 µM
[25] = second compound 10 µM, first compound 0.0316 µM
[26] = second compound 0.1 µM, first compound 0.1 µM
[27] = second compound 0.316 µM, first compound 0.1 µM
[28] = second compound 1 µM, first compound 0.1 µM
[29] = second compound 3.16 µM, first compound 0.1 µM
[30] = second compound 10 µM, first compound 0.1 µM
[31] = second compound 0.1 µM, first compound 0.316 µM
[32] = second compound 0.1 µM, first compound 1 µM
[33] = second compound 0.1 µM, first compound 3.16 µM
[34] = second compound 0.1 µM, first compound 10 µM
[35] = second compound 0.316 µM, first compound 0.316 µM
[36] = second compound 0.316 µM, first compound 1 µM
[37] = second compound 0.316 µM, first compound 3.16 µM
[38] = second compound 0.316 µM, first compound 10 µM
[39] = second compound 1 µM, first compound 0.316 µM
[40] = second compound 1 µM, first compound 1 µM
[41] = second compound 1 µM, first compound 3.16 µM
[42] = second compound 1 µM, first compound 10 µM
[43] = second compound 3.16 µM, first compound 0.316 µM
[44] = second compound 3.16 µM, first compound 1 µM
[45] = second compound 3.16 µM, first compound 3.16 µM
[46] = second compound 3.16 µM, first compound 10 µM
[47] = second compound 10 µM, first compound 0.316 µM
[48] = second compound 10 µM, first compound 1 µM
[49] = second compound 10 µM, first compound 3.16 µM
[50] = second compound 10 µM, first compound 10 µM
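Also: viability read after seven days of drug exposure.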

CC(=O)Nc1cccc(-n2c(=O)n(C3CC3)c(=O)c3c(Nc4ccc(I)cc4F)n(C)c(=O)c(C)c32)c1 + CNCc1ccccc1-c1csc(C(C)Nc2nc(C)nc3cc(OC)c(OC)cc23)c1
IC50 (second compound 0.1 µM): 0.252 nM
IC50 (second compound 0.316 µM): 0.285 nM
IC50 (second compound 1 µM): 0.312 nM
IC50 (second compound 3.16 µM): < 0.1 nM
IC50 (second compound 10 µM): < 0.1 nM
viability, T/C (second compound 0.1 µM, first compound 0.0001 µM): 70.5%
viability, T/C [1]: 44.9%
viability, T/C [2]: 28.5%
viability, T/C [3]: 27.1%
viability, T/C [4]: 20.9%
viability, T/C [5]: 15.9%
viability, T/C (second compound 0.316 µM, first compound 0.0001 µM): 69%
viability, T/C [6]: 43.6%
viability, T/C [7]: 38%
viability, T/C [8]: 26.3%
viability, T/C [9]: 22.2%
viability, T/C [10]: 14.1%
viability, T/C (second compound 1 µM, first compound 0.0001 µM): 81.5%
viability, T/C [11]: 39.6%
viability, T/C [12]: 35.7%
viability, T/C [13]: 24.5%
viability, T/C [14]: 7.75%
viability, T/C [15]: 2.12%
viability, T/C (second compound 3.16 µM, first compound 0.0001 µM): 1.11%
viability, T/C [16]: 0.2%
viability, T/C [17]: 1.26%
viability, T/C [18]: 0.11%
viability, T/C [19]: 0.95%
viability, T/C [20]: 0.19%
viability, T/C (second compound 10 µM, first compound 0.0001 µM): 0.21%
viability, T/C [21]: 0.24%
viability, T/C [22]: 0.18%
viability, T/C [23]: 0.4%
viability, T/C [24]: 2.28%
viability, T/C [25]: 0.26%

CC(C)n1nc(-c2ccc3oc(N)nc3c2)c2c(N)ncnc21 + CNCc1ccccc1-c1csc(C(C)Nc2nc(C)nc3cc(OC)c(OC)cc23)c1
IC50 (second compound 0.1 µM): 7.42 nM
IC50 (second compound 0.316 µM): 9.11 nM
IC50 (second compound 1 µM): 6.62 nM
IC50 (second compound 3.16 µM): < 0.316 nM
IC50 (second compound 10 µM): < 0.316 nM
viability, T/C [1]: 91.2%
viability, T/C [2]: 85.3%
viability, T/C [3]: 61.2%
viability, T/C [4]: 45.8%
viability, T/C [5]: 34.1%
viability, T/C [26]: 25.2%
viability, T/C [6]: 84%
viability, T/C [7]: 83.2%
viability, T/C [8]: 67.1%
viability, T/C [9]: 49.4%
viability, T/C [10]: 30.7%
viability, T/C [27]: 23.8%
viability, T/C [11]: 92.5%
viability, T/C [12]: 82.7%
viability, T/C [13]: 62.2%
viability, T/C [14]: 42.1%
viability, T/C [15]: 30.9%
viability, T/C [28]: 21.6%
viability, T/C [16]: 32.1%
viability, T/C [17]: 43.5%
viability, T/C [18]: 0.4%
viability, T/C [19]: 0.49%
viability, T/C [20]: 1.25%
viability, T/C [29]: 0.88%
viability, T/C [21]: 0.38%
viability, T/C [22]: 0.15%
viability, T/C [23]: 0.47%
viability, T/C [24]: 0.13%
viability, T/C [25]: 0.15%
viability, T/C [30]: 0.2%

COc1cc(Nc2ncc3c(n2)-c2ccc(Cl)cc2C(c2c(F)cccc2OC)=NC3)ccc1C(=O)O + CNCc1ccccc1-c1csc(C(C)Nc2nc(C)nc3cc(OC)c(OC)cc23)c1
IC50 (second compound 0.1 µM): 75.6 nM
IC50 (second compound 0.316 µM): < 31.6 nM
IC50 (second compound 1 µM): < 31.6 nM
IC50 (second compound 3.16 µM): < 31.6 nM
IC50 (second compound 10 µM): < 31.6 nM
viability, T/C [5]: 57.5%
viability, T/C [26]: 48.2%
viability, T/C [31]: 43.6%
viability, T/C [32]: 48.2%
viability, T/C [33]: 49.2%
viability, T/C [34]: 43.6%
viability, T/C [10]: 48.4%
viability, T/C [27]: 45.4%
viability, T/C [35]: 51.4%
viability, T/C [36]: 46%
viability, T/C [37]: 47.6%
viability, T/C [38]: 39.8%
viability, T/C [15]: 39.7%
viability, T/C [28]: 31.4%
viability, T/C [39]: 34.5%
viability, T/C [40]: 28.4%
viability, T/C [41]: 35.2%
viability, T/C [42]: 40.9%
viability, T/C [20]: 0.73%
viability, T/C [29]: 0.13%
viability, T/C [43]: 1.25%
viability, T/C [44]: 1.11%
viability, T/C [45]: 0.12%
viability, T/C [46]: 1.59%
viability, T/C [25]: 0.28%
viability, T/C [30]: 0.29%
viability, T/C [47]: 0.26%
viability, T/C [48]: 0.51%
viability, T/C [49]: 1.28%
viability, T/C [50]: 0.37%

COc1cc2nccc(Oc3ccc(NC(=O)C4(C(=O)Nc5ccc(F)cc5)CC4)cc3)c2cc1OC + CNCc1ccccc1-c1csc(C(C)Nc2nc(C)nc3cc(OC)c(OC)cc23)c1
IC50 (second compound 0.1 µM): 6770 nM
IC50 (second compound 0.316 µM): 6200 nM
IC50 (second compound 1 µM): 3700 nM
IC50 (second compound 3.16 µM): < 31.6 nM
IC50 (second compound 10 µM): < 31.6 nM
viability, T/C [5]: 92.7%
viability, T/C [26]: 94.2%
viability, T/C [31]: 94.5%
viability, T/C [32]: 92.2%
viability, T/C [33]: 70.7%
viability, T/C [34]: 39.4%
viability, T/C [10]: 94.6%
viability, T/C [27]: 101%
viability, T/C [35]: 95.9%
viability, T/C [36]: 115%
viability, T/C [37]: 75.7%
viability, T/C [38]: 31.9%
viability, T/C [15]: 98.8%
viability, T/C [28]: 99.9%
viability, T/C [39]: 114%
viability, T/C [40]: 99.6%
viability, T/C [41]: 57.7%
viability, T/C [42]: 2.02%
viability, T/C [20]: 0.62%
viability, T/C [29]: 0.34%
viability, T/C [43]: 0.41%
viability, T/C [44]: 0.52%
viability, T/C [45]: 0.39%
viability, T/C [46]: 0.4%
viability, T/C [25]: 0.2%
viability, T/C [30]: 0.12%
viability, T/C [47]: 0.63%
viability, T/C [48]: 0.12%
viability, T/C [49]: 0.23%
viability, T/C [50]: 0.19%
